Laboratory results published in patent US20230135524A1, “ARYL HYDANTOIN HETEROCYCLES AND METHODS OF USE” (The United States of America,as represented by the …, priority 2020, published 2023).

Tests used:
Progesterone Receptor B = target: T1, Progesterone Receptor B (Homo sapiens, UniProt P06401); experiment: Radioligand competition binding, [3H] progesterone; conditions: competition with 0.5 nM [3H] progesterone
T1 sequence (P06401 1-933): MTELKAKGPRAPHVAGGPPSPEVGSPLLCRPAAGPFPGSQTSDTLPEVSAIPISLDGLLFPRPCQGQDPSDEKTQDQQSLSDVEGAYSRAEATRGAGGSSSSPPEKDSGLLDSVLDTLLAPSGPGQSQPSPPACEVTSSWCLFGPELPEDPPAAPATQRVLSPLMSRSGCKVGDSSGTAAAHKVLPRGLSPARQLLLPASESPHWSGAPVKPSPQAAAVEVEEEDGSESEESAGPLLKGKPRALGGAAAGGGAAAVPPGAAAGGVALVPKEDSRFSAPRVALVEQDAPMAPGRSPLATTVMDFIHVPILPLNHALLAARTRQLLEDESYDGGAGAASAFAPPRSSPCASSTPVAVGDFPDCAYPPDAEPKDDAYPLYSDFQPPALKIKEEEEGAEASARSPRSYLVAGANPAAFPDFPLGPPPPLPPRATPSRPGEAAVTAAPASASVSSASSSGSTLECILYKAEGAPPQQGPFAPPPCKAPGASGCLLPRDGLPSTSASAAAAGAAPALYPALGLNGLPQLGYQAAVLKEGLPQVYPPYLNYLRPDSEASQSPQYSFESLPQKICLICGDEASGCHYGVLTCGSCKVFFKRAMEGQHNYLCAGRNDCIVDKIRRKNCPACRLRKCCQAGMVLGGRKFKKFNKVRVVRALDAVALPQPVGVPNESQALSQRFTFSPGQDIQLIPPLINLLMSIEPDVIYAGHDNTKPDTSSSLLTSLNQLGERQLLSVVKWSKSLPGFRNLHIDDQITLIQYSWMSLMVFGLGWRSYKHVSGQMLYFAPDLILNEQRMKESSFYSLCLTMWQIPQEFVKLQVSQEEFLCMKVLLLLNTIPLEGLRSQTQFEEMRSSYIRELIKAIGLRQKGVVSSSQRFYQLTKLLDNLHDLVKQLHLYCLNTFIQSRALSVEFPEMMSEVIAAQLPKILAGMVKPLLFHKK
Protocol: (§1) Binding assays were performed via competition with radioactive ligands across a range of dose of compounds 15a and 19d. For aldosterone binding, the aldosterone receptor was incubated for 20 hours with […] aldosterone. Similarly, the androgen receptor was co-incubated with 0.5 nM of [^3H] methyltrienolone, the estrogen receptor alpha was co-incubated with 0.5 nM [^3H] estradiol, the glucocorticoid receptor with 0.5 nM [^3H] dexamethasone, and the progesterone receptor with 0.5 nM [^3H] progesterone as parent ligands.

Androgen Receptor = target: T2, Androgen Receptor (UniProt P10275); experiment: Radioligand competition binding, [3H] methyltrienolone; conditions: competition with 0.5 nM [3H] methyltrienolone
T2 sequence (P10275 1-920): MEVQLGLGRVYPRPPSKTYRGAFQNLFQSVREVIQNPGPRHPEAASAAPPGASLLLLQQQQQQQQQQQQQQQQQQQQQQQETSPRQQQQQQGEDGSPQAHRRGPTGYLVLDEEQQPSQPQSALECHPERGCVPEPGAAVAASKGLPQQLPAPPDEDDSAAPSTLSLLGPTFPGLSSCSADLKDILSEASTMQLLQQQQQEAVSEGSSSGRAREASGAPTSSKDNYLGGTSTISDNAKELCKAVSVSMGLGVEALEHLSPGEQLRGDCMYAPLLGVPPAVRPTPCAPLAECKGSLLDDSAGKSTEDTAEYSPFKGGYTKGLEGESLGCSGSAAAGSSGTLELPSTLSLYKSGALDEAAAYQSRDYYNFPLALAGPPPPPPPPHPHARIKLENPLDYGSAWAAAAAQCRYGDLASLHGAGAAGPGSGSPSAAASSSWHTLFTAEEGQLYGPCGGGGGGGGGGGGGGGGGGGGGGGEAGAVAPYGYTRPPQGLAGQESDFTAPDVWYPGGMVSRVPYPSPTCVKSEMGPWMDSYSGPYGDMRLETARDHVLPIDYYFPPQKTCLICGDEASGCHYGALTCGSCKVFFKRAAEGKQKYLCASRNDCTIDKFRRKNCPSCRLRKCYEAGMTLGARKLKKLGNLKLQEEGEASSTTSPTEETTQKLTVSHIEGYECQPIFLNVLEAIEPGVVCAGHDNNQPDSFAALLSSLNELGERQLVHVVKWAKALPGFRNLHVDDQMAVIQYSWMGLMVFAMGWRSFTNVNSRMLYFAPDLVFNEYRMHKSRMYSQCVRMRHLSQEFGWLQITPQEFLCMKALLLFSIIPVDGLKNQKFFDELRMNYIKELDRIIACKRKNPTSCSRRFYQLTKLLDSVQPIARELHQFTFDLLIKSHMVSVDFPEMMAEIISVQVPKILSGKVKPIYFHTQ
Protocol: as §1

AR = target: T3, AR (Homo sapiens, UniProt P10275); experiment: AR transcriptional output, ARE-luciferase assay in HEK 293T cells; type: cell-based
T3 construct: host or cells: HEK 293T
T3 sequence (P10275 1-920): T2 sequence (P10275 1-920)
Protocol: 100% is set to the activity with 200 μM testosterone, and 0% is set to the basal level (no ligand).
Cells were maintained in steroid free media, and stimulated with 200 μM testosterone, followed immediately by administration of exemplary compounds (Table 1, below). RLU is relative luciferase units, relative to DMSO control with 200 μM testosterone alone. Data represent an average of 3 independent experiments performed in triplicate wells per compounds at 10 μM.
Cells were maintained in steroid-free media, and stimulated with 200 μM testosterone, followed immediately by administration of a test compound. […] Compounds were dosed at 10 μM in FIGS. 6A and 6B.
Cells were maintained in steroid-free media, and stimulated with 200 μM testosterone, followed immediately by administration of a test compound.

[1] = Pharmacokinetics in non-tumor bearing BALB/C mice, IV and PO; type: in vivo; conditions: for Cmax—D: dose-normalised; for Tmax / half-life: mouse, plasma
Protocol: FIG. 14A-B are graphs of time (hours) versus plasma concentration (ng/mL) for intravenous (IV) (FIG. 14A) and oral (PO) (FIG. 14B) administration of 15a and 15n over 12 hours. Error bars represent the standard deviation in ng/mL from three independent mice per time point.
Clearance, Cmax, half life, dose/AUC, and bioavailability were calculated by statistical analysis using PHOENIX™ WINNONLIN™ v7.0 (Certara, Princeton, N.J.). The results are shown in FIGS. 14A and 14B and Table 4.

Row | Compound | IC50 (Progesterone Receptor B) | IC50 (Androgen Receptor) | antagonist or inverse agonist activity on AR transcriptional activity (in words) (AR; 10 μM, HEK 293T, FIG. 6A) | activity at 10 µM (AR; HEK-293T, read-out: AR antagonist activity (% RLU)) | Cmax—D ([1]; IV, 1 mg/kg) | Cmax—D ([1]; PO, 20 mg/kg) | Tmax ([1]; IV, 1 mg/kg) | half-life ([1]; IV, 1 mg/kg) | Tmax ([1]; PO, 20 mg/kg) | half-life ([1]; PO, 20 mg/kg)
1 | CC1(C)C(=O)N(c2ccc(C#N)c(C(F)(F)F)c2)C(=S)N1Cc1ccc(-c2c[nH]nn2)cc1F [Compound 19d, 4-(3-(2-Fluoro-4-(1H-1,2,3-triazol-4-yl)benzyl)-4,4-dimethyl-5-oxo-2-thioxoimidazolidin-1-yl)-2-(trifluoromethyl)benzonitrile] | 76.3 nM | 9.3 nM | – | – | – | – | – | – | – | –
2 | CC1(C)C(=O)N(c2ccc(C#N)c(C(F)(F)F)c2)C(=S)N1Cc1ccc(-c2c[nH]nn2)cc1 [Compound 15a, 4-(3-(4-(1H-1,2,3-triazol-4-yl)benzyl)-4,4-dimethyl-5-oxo-2-thioxoimidazolidin-1-yl)-2-(trifluoromethyl)benzonitrile] | 103 nM | 12.5 nM | reduced the transcriptional activity of the AR well below the expression in the absence of any steroids or ligands | -109% | 453 kg·ng/mL/mg | 412 kg·ng/mL/mg | 2 h | 1080 min | 2 h | 1240 min
